Where no end group is shown, it is not given here. [ ]: non-standard residue; d: D form. Cit = NC(=O)NCCC[C@H](N)C(=O)O
What was measured:
Assay in all cases: REVEAL binding assay
Conditions in all cases: score as percentage of the signal generated by the positive control peptide
[1] = tested on: HLA-B40
Protocol: (§1) Binding properties to HLA for the ninemers listed in table 6 were tested for the following HLA-classes:
(§2) HLA-A1, HLA-A2, HLA-A3, HLA-A11, HLA-A24, HLA-A29, HLA-B7, HLA-B8, HLA-B14, HLA-B15, HLA-B27, HLA-B35, HLA-B40.
The peptides were synthesized as a Prospector PEPscreen®: Custom Peptide Library. Peptides 8-15 amino acids in length were synthesized in 0.5-2 mg quantities with high average purity. Quality control by MALDI-TOF Mass Spectrometry was carried out on 100% of samples.
The REVEAL™ binding assay determined the ability of each candidate peptide to bind to one or more MHC class I alleles and stabilizing the MHC-peptide complex. By comparing the binding to that of high and intermediate affinity T cell epitopes, the most likely immunogenic peptides in a protein sequence can be identified. Detection is based on the presence or absence of the native conformation of the MHC-peptide complex. Each peptide is given a score relative to the positive control peptide, which is a known T cell epitope. The score of the test peptide is reported quantitatively as a percentage of the signal generated by the positive control peptide, and the peptide is indicated as having a putative pass or fail result. Assay performance is confirmed by including an intermediate control peptide that is known to bind with weaker affinity to the allele under investigation.

[2] = tested on: HLA-A24
From the text: (§5) The REVEAL™ binding assay determined the ability of each candidate peptide to bind to one or more MHC class I alleles and stabilizing the MHC-peptide complex. […] Detection is based on the presence or absence of the native conformation of the MHC-peptide complex. Each peptide is given a score relative to the positive control peptide, which is a known T cell epitope.

[3] = tested on: HLA-B14
From the text: as §5

[4] = tested on: HLA-A1
From the text: as §5

[5] = tested on: HLA-B35
From the text: as §5

[6] = tested on: HLA-B8
From the text: as §5

[7] = tested on: HLA-B15
[8] = target: HLA-B7 (Homo sapiens, UniProt P01889)
Protocol: as §1, §2
(§3) The peptides were synthesized as a Prospector PEPscreen®: Custom Peptide Library. […] Quality control by MALDI-TOF Mass Spectrometry was carried out on 100% of samples.
(§4) The REVEAL™ binding assay determined the ability of each candidate peptide to bind to one or more MHC class I alleles and stabilizing the MHC-peptide complex. By comparing the binding to that of high and intermediate affinity T cell epitopes, the most likely immunogenic peptides in a protein sequence can be identified. Detection is based on the presence or absence of the native conformation of the MHC-peptide complex. Each peptide is given a score relative to the positive control peptide, which is a known T cell epitope.

[9] = target: HLA-A11 (Homo sapiens, UniProt P04439, A114D/F33Y/S129P)
Protocol: as §1, §2, §3, §4

[10] = target: HLA-A3 (Homo sapiens, UniProt P04439)
Protocol: as §1, §2, §3, §4

[11] = target: HLA-B27 (Homo sapiens, UniProt P01889, D138H/D201E/E176V/E204Q/G107R/H137Y/K202T/N104T/N87E/Q56L/Q94K/R106L/R155S/R180L/S101D/S121N/S48T/Y140D/Y33H/Y91C)
Protocol: as §1, §2, §3, §4

[12] = target: HLA-A2 (Homo sapiens, UniProt P04439, D140Y/D185E/D98H/E176V/E277Q/G131W/G231S/I119V/I121R/I166T/I218V/N151K/N90K/P208A/P217A/Q86G/Q94H/R138H/R169H)
Protocol: as §1, §2, §3, §4

[13] = tested on: HLA-A29
From the text: as §5

HLA-A3, sequence (P04439 25-299): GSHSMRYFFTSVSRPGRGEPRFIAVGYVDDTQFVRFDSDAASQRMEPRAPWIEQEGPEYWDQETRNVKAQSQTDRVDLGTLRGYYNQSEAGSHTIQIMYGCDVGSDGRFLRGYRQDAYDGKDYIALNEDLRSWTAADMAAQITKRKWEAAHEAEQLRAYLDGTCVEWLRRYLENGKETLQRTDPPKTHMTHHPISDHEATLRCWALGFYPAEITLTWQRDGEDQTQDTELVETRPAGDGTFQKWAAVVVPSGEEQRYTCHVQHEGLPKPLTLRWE
HLA-A3, sequence (P61769 21-119, further chain): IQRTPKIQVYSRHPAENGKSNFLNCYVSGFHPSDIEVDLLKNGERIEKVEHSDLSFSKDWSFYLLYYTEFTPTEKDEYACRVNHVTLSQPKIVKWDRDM
HLA-B7, sequence (P61769 21-119): as the sequence (P61769 21-119, further chain) above
HLA-B7, sequence (P01889 25-299): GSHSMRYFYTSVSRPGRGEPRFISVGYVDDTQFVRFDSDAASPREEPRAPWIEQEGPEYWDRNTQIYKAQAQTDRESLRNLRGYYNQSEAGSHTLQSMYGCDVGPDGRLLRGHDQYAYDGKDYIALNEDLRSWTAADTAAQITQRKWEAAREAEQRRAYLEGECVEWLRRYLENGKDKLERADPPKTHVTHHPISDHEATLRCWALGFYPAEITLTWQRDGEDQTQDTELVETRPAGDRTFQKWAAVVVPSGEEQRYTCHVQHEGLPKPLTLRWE

GQIIGGNYL
REVEAL binding score, HLA-type B40 [1]: 31.55%
REVEAL binding score, HLA-type A24 [2]: 0.47%
REVEAL binding score, HLA-type B14 [3]: 0.22%
REVEAL binding score, HLA-type A1 [4]: 20.65%
REVEAL binding score, HLA-type B35 [5]: 2.60%
REVEAL binding score, HLA-type B8 [6]: 11.90%
REVEAL binding score, HLA-type B15 [7]: 173.66%
REVEAL binding score, HLA-type B7 [8]: 2.39%
REVEAL binding score, HLA-type A11 [9]: 2.77%
REVEAL binding score, HLA-type A3 [10]: 3.01%
REVEAL binding score, HLA-type B27 [11]: 0.64%
REVEAL binding score, HLA-type A2 [12]: 12.96%
REVEAL binding score, HLA-type A29 [13]: 14.17%

VIETLTSGF
REVEAL binding score, HLA-type B40 [1]: 24.04%
REVEAL binding score, HLA-type A24 [2]: 0.82%
REVEAL binding score, HLA-type B14 [3]: 0.35%
REVEAL binding score, HLA-type A1 [4]: 14.61%
REVEAL binding score, HLA-type B35 [5]: 2.39%
REVEAL binding score, HLA-type B8 [6]: 12.96%
REVEAL binding score, HLA-type B15 [7]: 10.37%
REVEAL binding score, HLA-type B7 [8]: 0.71%
REVEAL binding score, HLA-type A11 [9]: 3.66%
REVEAL binding score, HLA-type A3 [10]: 2.55%
REVEAL binding score, HLA-type B27 [11]: 1.38%
REVEAL binding score, HLA-type A2 [12]: 4.84%
REVEAL binding score, HLA-type A29 [13]: 13.07%

LPAVGAPIG
REVEAL binding score, HLA-type B40 [1]: 39.31%
REVEAL binding score, HLA-type A24 [2]: 0.61%
REVEAL binding score, HLA-type B14 [3]: 0.12%
REVEAL binding score, HLA-type A1 [4]: 20.57%
REVEAL binding score, HLA-type B35 [5]: 1.06%
REVEAL binding score, HLA-type B8 [6]: 15.87%
REVEAL binding score, HLA-type B15 [7]: 10.10%
REVEAL binding score, HLA-type B7 [8]: 8.12%
REVEAL binding score, HLA-type A11 [9]: 4.95%
REVEAL binding score, HLA-type A3 [10]: 3.02%
REVEAL binding score, HLA-type B27 [11]: 0.49%
REVEAL binding score, HLA-type A2 [12]: 5.60%
REVEAL binding score, HLA-type A29 [13]: 25.32%

IRVIAHGLR
REVEAL binding score, HLA-type B40 [1]: 26.45%
REVEAL binding score, HLA-type A24 [2]: 0.50%
REVEAL binding score, HLA-type B14 [3]: 0.10%
REVEAL binding score, HLA-type A1 [4]: 15.82%
REVEAL binding score, HLA-type B35 [5]: 0.66%
REVEAL binding score, HLA-type B8 [6]: 13.34%
REVEAL binding score, HLA-type B15 [7]: 8.99%
REVEAL binding score, HLA-type B7 [8]: 3.50%
REVEAL binding score, HLA-type A11 [9]: 2.50%
REVEAL binding score, HLA-type A3 [10]: 3.58%
REVEAL binding score, HLA-type B27 [11]: 9.37%
REVEAL binding score, HLA-type A2 [12]: 4.83%
REVEAL binding score, HLA-type A29 [13]: 23.19%

IPLVGAPLG
REVEAL binding score, HLA-type B40 [1]: 41.10%
REVEAL binding score, HLA-type A24 [2]: 0.60%
REVEAL binding score, HLA-type B14 [3]: 0.03%
REVEAL binding score, HLA-type A1 [4]: 13.28%
REVEAL binding score, HLA-type B35 [5]: 30.74%
REVEAL binding score, HLA-type B8 [6]: 17.87%
REVEAL binding score, HLA-type B15 [7]: 10.01%
REVEAL binding score, HLA-type B7 [8]: 2.34%
REVEAL binding score, HLA-type A11 [9]: 2.05%
REVEAL binding score, HLA-type A3 [10]: 2.59%
REVEAL binding score, HLA-type B27 [11]: 0.35%
REVEAL binding score, HLA-type A2 [12]: 4.32%
REVEAL binding score, HLA-type A29 [13]: 26.79%

IGGNYLIPR
REVEAL binding score, HLA-type B40 [1]: 25.44%
REVEAL binding score, HLA-type A24 [2]: 0.89%
REVEAL binding score, HLA-type B14 [3]: 0.32%
REVEAL binding score, HLA-type A1 [4]: 17.90%
REVEAL binding score, HLA-type B35 [5]: 2.54%
REVEAL binding score, HLA-type B8 [6]: 14.23%
REVEAL binding score, HLA-type B15 [7]: 15.02%
REVEAL binding score, HLA-type B7 [8]: 20.49%
REVEAL binding score, HLA-type A11 [9]: 3.57%
REVEAL binding score, HLA-type A3 [10]: 2.88%
REVEAL binding score, HLA-type B27 [11]: 0.82%
REVEAL binding score, HLA-type A2 [12]: 7.04%
REVEAL binding score, HLA-type A29 [13]: 14.85%

IVGGVYLLP
REVEAL binding score, HLA-type B40 [1]: 19.83%
REVEAL binding score, HLA-type A24 [2]: 0.30%
REVEAL binding score, HLA-type B14 [3]: 1.65%
REVEAL binding score, HLA-type A1 [4]: 22.11%
REVEAL binding score, HLA-type B35 [5]: 2.68%
REVEAL binding score, HLA-type B8 [6]: 11.48%
REVEAL binding score, HLA-type B15 [7]: 15.00%
REVEAL binding score, HLA-type B7 [8]: 24.16%
REVEAL binding score, HLA-type A11 [9]: 3.10%
REVEAL binding score, HLA-type A3 [10]: 1.88%
REVEAL binding score, HLA-type B27 [11]: 0.68%
REVEAL binding score, HLA-type A2 [12]: 6.78%
REVEAL binding score, HLA-type A29 [13]: 12.38%

RNLGRVIET
REVEAL binding score, HLA-type B40 [1]: 27.57%
REVEAL binding score, HLA-type A24 [2]: 0.51%
REVEAL binding score, HLA-type B14 [3]: 0.26%
REVEAL binding score, HLA-type A1 [4]: 15.93%
REVEAL binding score, HLA-type B35 [5]: 2.34%
REVEAL binding score, HLA-type B8 [6]: 15.51%
REVEAL binding score, HLA-type B15 [7]: 8.84%
REVEAL binding score, HLA-type B7 [8]: 0.71%
REVEAL binding score, HLA-type A11 [9]: 13.68%
REVEAL binding score, HLA-type A3 [10]: 5.52%
REVEAL binding score, HLA-type B27 [11]: 0.91%
REVEAL binding score, HLA-type A2 [12]: 5.96%
REVEAL binding score, HLA-type A29 [13]: 15.13%

[Cit]IGVRAT[Cit]R
REVEAL binding score, HLA-type B40 [1]: 18.45%
REVEAL binding score, HLA-type A24 [2]: 0.50%
REVEAL binding score, HLA-type B14 [3]: 0.17%
REVEAL binding score, HLA-type A1 [4]: 19.68%
REVEAL binding score, HLA-type B35 [5]: 8.51%
REVEAL binding score, HLA-type B8 [6]: 12.09%
REVEAL binding score, HLA-type B15 [7]: 14.45%
REVEAL binding score, HLA-type B7 [8]: 14.59%
REVEAL binding score, HLA-type A11 [9]: 8.27%
REVEAL binding score, HLA-type A3 [10]: 25.16%
REVEAL binding score, HLA-type B27 [11]: 0.86%
REVEAL binding score, HLA-type A2 [12]: 8.17%
REVEAL binding score, HLA-type A29 [13]: 16.67%

RLGVRATRK
REVEAL binding score, HLA-type B40 [1]: 23.05%
REVEAL binding score, HLA-type A24 [2]: 0.28%
REVEAL binding score, HLA-type B14 [3]: 0.07%
REVEAL binding score, HLA-type A1 [4]: 20.39%
REVEAL binding score, HLA-type B35 [5]: 2.83%
REVEAL binding score, HLA-type B8 [6]: 10.21%
REVEAL binding score, HLA-type B15 [7]: 11.74%
REVEAL binding score, HLA-type A29 [13]: 12.83%

Source: patent US9550811B2, “Peptide scaffold design” (BIONOR IMMUNO AS, priority 2010, dated 2017)
